Measurements published in the supplement of paper PMC11061612.

Key:
WM1552C (Melanoma) = assay: combination Emax (second highest fraction inhibited in the dose matrix, 72 h); higher = more inhibition; extreme values may be limits of the assay
In short: (§1)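 Cell lines grown in DMEM/F12 or RPMI with 10% FBS were plated in 1536-well plates and held 24 hours at 37°C, 5% CO2 before 72 hours of exposure to two-drug dose matrices, with DMSO typically at 0.2%. CellTiter-Glo 2.0 luminescence gave viability, which was converted to inhibition. Vehicle wells were set to 0 and blank wells to 1. Combination Emax is the second-highest inhibition in the matrix, and Bliss excess is the observed combination effect minus the expected EA + EB − EA·EB, where EA and EB are the single-agent effects.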

[1] = test system: NCI-H441 (Lung Adenocarcinoma); assay: as above
In short: as §1

[2] = test system: SW620 (Colorectal Carcinoma); assay: as above
In short: as §1

IM-9 (Non-Cancerous) = assay: as above
In short: as §1

[3] = test system: JHU-022 (Oral Cavity Carcinoma); assay: as above
In short: as §1

[4] = test system: NCI-H1703 (Squamous Cell Lung Carcinoma); assay: as above
In short: as §1

PEO1 (Ovarian Carcinoma) = assay: as above
In short: as §1

[5] = test system: MHH-ES-1 (Ewing's Sarcoma); assay: as above
In short: as §1

[6] = test system: KYSE-220 (Esophageal Squamous Cell Carcinoma); assay: as above
In short: as §1

EB2 (Burkitt's Lymphoma) = assay: as above
In short: as §1

[7] = test system: NCI-H1651 (Lung Adenocarcinoma); assay: as above
In short: as §1

[8] = test system: LU-165 (Small Cell Lung Carcinoma); assay: as above
In short: as §1

[9] = test system: 22RV1 (Prostate Carcinoma); assay: as above
In short: as §1

[10] = test system: MDA-MB-436 (Breast Carcinoma); assay: as above
In short: as §1

HCC70 (Breast Carcinoma) = assay: as above
In short: as §1

[11] = test system: NCI-H2087 (Lung Adenocarcinoma); assay: as above
In short: as §1

[12] = test system: NCI-H1703 (Squamous Cell Lung Carcinoma); assay: Bliss excess, mean over the matrix (fraction); higher = more synergy
In short: as §1

[13] = test system: MHH-ES-1 (Ewing's Sarcoma); assay: as above
In short: as §1

[14] = test system: 22RV1 (Prostate Carcinoma); assay: as above
In short: as §1

769-P (Kidney Carcinoma) = assay: as above
In short: as §1
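For Bliss excess, mean over the matrix in this document: after 72 h of two-drug dosing.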

Row | Compound | combination Emax (WM1552C (Melanoma)) | combination Emax [1] | combination Emax [2] | combination Emax (IM-9 (Non-Cancerous)) | combination Emax [3] | combination Emax [4] | combination Emax (PEO1 (Ovarian Carcinoma)) | combination Emax [5] | combination Emax [6] | combination Emax (EB2 (Burkitt's Lymphoma)) | combination Emax [7] | combination Emax [8] | combination Emax [9] | combination Emax [10] | combination Emax (HCC70 (Breast Carcinoma)) | combination Emax [11] | Bliss excess [12] | Bliss excess [13] | Bliss excess [14] | Bliss excess (769-P (Kidney Carcinoma))
1 | CN(CCO)CC[C@H](CSc1ccccc1)Nc1ccc(S(=O)(=O)NC(=O)c2ccc(N3CCC([C@@H](O)c4ccccc4-c4ccc(Cl)cc4)CC3)cc2)cc1S(=O)(=O)C(F)(F)F [AZD4320] + C1CN(CCC1(C(=O)N[C@@H](CCO)C2=CC=C(C=C2)Cl)N)C3=NC=NC4=C3C=CN4 [Capivasertib] (first compound max 1 µM, 7x7, partner max 3 µM) | 0.183 | 0.173 | 0.137 | 0.586 | 0.308 | 0.402 | 0.432 | 0.48 | 0.237 | 0.534 | 0.193 | 0.581 | 0.471 | 0.142 | 0.813 | 0.232 | 0.0251 | -0.0261 | -0.0486 | -0.0478
2 | CN(CCO)CC[C@H](CSc1ccccc1)Nc1ccc(S(=O)(=O)NC(=O)c2ccc(N3CCC([C@@H](O)c4ccccc4-c4ccc(Cl)cc4)CC3)cc2)cc1S(=O)(=O)C(F)(F)F [AZD4320] + C=CCn1c(=O)c2cnc(Nc3ccc(N4CCN(C)CC4)cc3)nc2n1-c1cccc(C(C)(C)O)n1 [AZD1775] (first compound max 1 µM, partner max 1 µM) | 0.471 | 0.552 | 0.931 | 1 | 0.579 | 0.972 | 0.529 | 0.947 | 0.795 | 0.866 | 0.746 | 0.681 | 0.321 | 0.196 | 0.607 | 0.68 | 0.0572 | 0.0439 | -0.0487 | -0.0025
3 | CN(CCO)CC[C@H](CSc1ccccc1)Nc1ccc(S(=O)(=O)NC(=O)c2ccc(N3CCC([C@@H](O)c4ccccc4-c4ccc(Cl)cc4)CC3)cc2)cc1S(=O)(=O)C(F)(F)F [AZD4320] + CC(=O)O[C@H]1C(=O)[C@@]2(C)[C@H]([C@H](OC(=O)c3ccccc3)[C@]3(O)C[C@H](OC(=O)[C@H](O)[C@@H](NC(=O)c4ccccc4)c4ccccc4)C(C)=C1C3(C)C)[C@]1(OC(C)=O)CO[C@@H]1C[C@@H]2O [Paclitaxel] (first compound max 1 µM, 7x7, partner max 3 µM) | 0.941 | 0.735 | 1 | 1 | 0.846 | 0.976 | 0.852 | 1 | 0.793 | 0.802 | 0.981 | 0.88 | 0.845 | 0.65 | 0.875 | 0.976 | -0.0223 | 0.0393 | -0.0017 | -0.0444
4 | CN(CCO)CC[C@H](CSc1ccccc1)Nc1ccc(S(=O)(=O)NC(=O)c2ccc(N3CCC([C@@H](O)c4ccccc4-c4ccc(Cl)cc4)CC3)cc2)cc1S(=O)(=O)C(F)(F)F [AZD4320] + CCN(CCO)CCCOc1ccc2c(Nc3cc(CC(=O)Nc4cccc(F)c4)[nH]n3)ncnc2c1 [AZD2811] (first compound max 1 µM, 7x7, partner max 1 µM) | 0.481 | 0.202 | 0.946 | 1 | 0.315 | 0.473 | 0.454 | 0.924 | 0.196 | 0.338 | 0.204 | 0.486 | 0.259 | 0.0639 | 0.66 | 0.464 | 0.0384 | 0.14 | -0.0342 | 0.0052
5 | CN(CCO)CC[C@H](CSc1ccccc1)Nc1ccc(S(=O)(=O)NC(=O)c2ccc(N3CCC([C@@H](O)c4ccccc4-c4ccc(Cl)cc4)CC3)cc2)cc1S(=O)(=O)C(F)(F)F [AZD4320] + C[C@@H]1COCCN1C2=NC(=NC(=C2)C3(CC3)[S@](=N)(=O)C)C4=C5C=CNC5=NC=C4 [AZD6738] (first compound max 1 µM, 7x7, partner max 10 µM) | 0.73 | 0.69 | 0.793 | 1 | 0.753 | 0.892 | 0.686 | 0.85 | 0.877 | 0.835 | 0.728 | 0.776 | 0.624 | 0.34 | 0.845 | 0.919 | 0.0053 | 0.0133 | -0.133 | -0.0167
6 | CN(CCO)CC[C@H](CSc1ccccc1)Nc1ccc(S(=O)(=O)NC(=O)c2ccc(N3CCC([C@@H](O)c4ccccc4-c4ccc(Cl)cc4)CC3)cc2)cc1S(=O)(=O)C(F)(F)F [AZD4320] + C[C@@H](Nc1cc(F)cc(F)c1)c1cc(C(=O)N(C)C)cc2c(=O)cc(N3CCOCC3)oc12 [AZD8186] (first compound max 1 µM, 7x7, partner max 3 µM) | 0.424 | 0.573 | 0.84 | 0.972 | 0.446 | 0.531 | 0.613 | 0.946 | 0.35 | 0.536 | 0.411 | 0.717 | 0.456 | 0.459 | 0.781 | 0.773 | 0.0398 | 0.01 | -0.0076 | 0.0227
7 | CN(CCO)CC[C@H](CSc1ccccc1)Nc1ccc(S(=O)(=O)NC(=O)c2ccc(N3CCC([C@@H](O)c4ccccc4-c4ccc(Cl)cc4)CC3)cc2)cc1S(=O)(=O)C(F)(F)F [AZD4320] + Cc1cc2ncnn2cc1Nc1ncc2c(n1)n(C1CCOCC1)c(=O)n2C [AZD7648] (first compound max 1 µM, 7x7, partner max 10 µM) | 0.143 | 0.198 | 0.233 | 0.696 | 0.182 | 0.322 | 0.386 | 0.497 | 0.11 | 0.431 | 0.16 | 0.516 | 0.426 | 0.177 | 0.356 | 0.286 | -0.0096 | -0.0097 | -0.0532 | -0.0572
8 | CN(CCO)CC[C@H](CSc1ccccc1)Nc1ccc(S(=O)(=O)NC(=O)c2ccc(N3CCC([C@@H](O)c4ccccc4-c4ccc(Cl)cc4)CC3)cc2)cc1S(=O)(=O)C(F)(F)F [AZD4320] + Cn1cnc2c(F)c(Nc3ccc(Br)cc3Cl)c(C(=O)NOCCO)cc21 [Selumetinib] (first compound max 1 µM, 7x7, partner max 3 µM) | 0.558 | 0.522 | 0.942 | 1 | 0.629 | 0.298 | 0.582 | 0.951 | 0.505 | 0.377 | 0.39 | 0.748 | 0.453 | 0.335 | 0.7 | 0.908 | 0.0103 | -0.0124 | 0.136 | 0.0392
9 | CN(CCO)CC[C@H](CSc1ccccc1)Nc1ccc(S(=O)(=O)NC(=O)c2ccc(N3CCC([C@@H](O)c4ccccc4-c4ccc(Cl)cc4)CC3)cc2)cc1S(=O)(=O)C(F)(F)F [AZD4320] + Nc1ccn([C@@H]2O[C@H](CO)[C@@H](O)C2(F)F)c(=O)n1 [Gemcitabine] (first compound max 1 µM, 7x7, partner max 0.3 µM) | 0.817 | 0.765 | 0.871 | 1 | 0.787 | 0.915 | 0.607 | 0.964 | 0.674 | 0.932 | 0.543 | 0.828 | 0.748 | 0.531 | 0.507 | 0.881 | -0.0482 | 0.0486 | -0.0286 | -0.0672
10 | COc1nnc2ccc(N3CCC(c4ccc(OCCN5CCN(C)C(=O)[C@H]5C)cc4)CC3)nn12 [AZD5153] + CN(CC[C@H](CSC1=CC=CC=C1)NC2=C(C=C(C=C2)S(=O)(=O)NC(=O)C3=CC=C(C=C3)N4CCC(CC4)[C@H](C5=CC=CC=C5C6=CC=C(C=C6)Cl)O)S(=O)(=O)C(F)(F)F)CCO [AZD4320] (first compound max 1 µM, 7x7, partner max 1 µM) |  |  | 0.84 |  |  |  |  | 0.74 |  |  |  |  |  |  |  |  |  | 0.0258 |  | 
11 | CC(=O)c1c(C)c2cnc(Nc3ccc(N4CCNCC4)cn3)nc2n(C2CCCC2)c1=O [Palbociclib] + CN(CC[C@H](CSC1=CC=CC=C1)NC2=C(C=C(C=C2)S(=O)(=O)NC(=O)C3=CC=C(C=C3)N4CCC(CC4)[C@H](C5=CC=CC=C5C6=CC=C(C=C6)Cl)O)S(=O)(=O)C(F)(F)F)CCO [AZD4320] (first compound max 10 µM, 7x7, partner max 1 µM) |  |  | 0.693 |  |  |  |  | 0.835 |  |  |  |  |  |  |  |  |  | 0.0028 |  | 
12 | C[C@@H](c1ccc2nccn2c1)n1nnc2ncc(-c3cnn(C)c3)nc21 [Savolitinib] + CN(CC[C@H](CSC1=CC=CC=C1)NC2=C(C=C(C=C2)S(=O)(=O)NC(=O)C3=CC=C(C=C3)N4CCC(CC4)[C@H](C5=CC=CC=C5C6=CC=C(C=C6)Cl)O)S(=O)(=O)C(F)(F)F)CCO [AZD4320] (first compound max 1 µM, 7x7, partner max 1 µM) |  |  | 0.207 |  |  |  |  | 0.404 |  |  |  |  |  |  |  |  |  | -0.0154 |  | 
